The text below walks through data of patent US12336980B2, “Dosing regimen for a selective S1P1 receptor agonist” (Vanda Pharmaceuticals Inc., priority 2014, dated 2025).

In one data set the test system is healthy subjects. Put plainly: Safety and tolerability, adverse events. The class given is in vivo, human. On the procedure: In a single-center, double-blind, placebo-controlled, randomized, two-way cross-over study, 32 healthy subjects (15 males) received placebo on Day 1 followed by multiple-dose administration of either ponesimod or placebo (ratio 3:1). Ponesimod was administered alternately using regimen A (incremental dose increase from 2 to 20 mg) or B (10 mg for 7 days followed by a single-dose administration of 20 mg). Cardiodynamic (Holter and 12-lead ECG), pharmacokinetic, pharmacodynamic (total lymphocyte count), and safety variables were assessed.
(§1) The enrolled subjects came to the study center for each treatment period on Day −2 and participated in a run-in (all study procedures performed without study drug administration) on Day −1. On Day 1, subjects were randomized to one of the two possible sequences of the two up-titration regimens A and B (ratio 1:1). On Day 1, all subjects received placebo; the first study drug administration (or its matching placebo) occurred on Day 2. Regimen A consisted of the novel up-titration regimen: ponesimod was administered once daily (o.d.) orally at a dose of 2 mg on Day 2 and Day 3, 3 mg on Day 4 and Day 5, 4 mg on Day 6 and Day 7, 5 mg on Day 8, 6 mg on Day 9, 7 mg on Day 10, 8 mg on Day 11, 9 mg on Day 12, 10 mg on Day 13 and Day 14, and 20 mg on Day 15. The reference regimen (regimen B) was based on previous studies (Olsson T. et al., Oral ponesimod in relapsing-remitting multiple sclerosis: a randomised phase II trial. J Neurol Neurosurg Psychiatry. 2014; 85 (11): 1198-1208; and Vaclavkova A. et al., Oral ponesimod in patients with chronic plaque psoriasis: a randomised, double-blind, placebo-controlled phase 2 trial. Lancet. 2014; 384 (9959): 2036-2045) and consisted of an o.d. oral administration of ponesimod at a dose of 10 mg for 7 days (i.e., from Day 2 to Day 8) and 20 mg on Day 9. From Day 10 to Day 15 subjects received o.d. the matching placebo. In the placebo group (1:1 sex ratio), subjects received placebo from Day 1 to Day 15. All treatments were administered at the same time in the morning (fasted condition) with approximately 240 mL of water.
Safety and tolerability were evaluated by monitoring adverse events (AEs), vital signs measurements (supine blood pressure), pulmonary function tests (PFTs; i.e., FEV1 and FVC), clinical laboratory, physical, and neurological examinations. Recording of blood pressure was performed at the same time-points as 12-lead ECG.

The nature of data set [1]: Plasma concentrations of ponesimod by LC-MS/MS. The class given is in vivo, human.
Excerpt: as §1, with “All treatments were administered at the same time in the morning (fasted condition) with approximately 240 mL of water.” left out
Blood samples of about 3 mL were collected in ethylene di-amine tetra acetic acid tubes at pre-dose and 3 h after study drug administration from Day 1 to Day 15 in each treatment period. […] Plasma concentrations of ponesimod were determined using a validated liquid chromatography coupled to tandem mass spectrometry assay with a lower limit of quantification of 1 ng/mL (Brossard P. et al., Pharmacokinetics and pharmacodynamics of ponesimod, a selective S1 P1 receptor modulator, in the first-in-human study. British journal of clinical pharmacology. 2013; 76 (6): 888-896). […]

Regarding `CCC/N=C1\S/C(=C\c2ccc(OC[C@H](O)CO)c(Cl)c2)C(=O)N1c1ccccc1C` [ponesimod, (R)-5-[3-chloro-4-(2,3-dihydroxy-propoxy)-benz[Z]ylidene]-2-([Z]-propylimino)-3-o-tolyl-thiazolidin-4-one], in the data set with healthy subjects (20 mg ponesimod (regimen B)), the “time of serious AE of atrial fibrillation after administration” value was found to be 6 h and the “time to resolution of serious AE of atrial fibrillation without sequelae” value was not above 24 h. Further, the “serious AE” value in the data set with healthy subjects (after 20 mg ponesimod (regimen B)) is given as “One serious AE of atrial fibrillation”. Moreover, the “intensity of AEs” value with healthy subjects (all treatment groups) is recorded as “mild to moderate”. In the data set on healthy subjects (on ponesimod, also among the most common in the placebo group), the “most commonly reported AEs” value is “headache, dizziness, and procedural site reaction”. In the data set on healthy subjects (regimen B vs regimen A), the “AEs of special interest related to cardiac function (sinus bradycardia and palpitations)” value was “reported more frequently during regimen B compared to regimen A”. The concentration at 3 h in data set [1] (human, plasma, oral, 20 mg, regimen A, Day 15, read-out: plasma concentration 3 h after 20 mg of ponesimod) came out at 144 ± 36.9 ng/mL. Moreover, the “plasma concentration 3 h after 20 mg of ponesimod” value in data set [1] (regimen B, Day 9) turned out to be 144.0 ± 41.9 ng/mL. Also, the “10 mg steady-state conditions attained” value in data set [1] (regimen B, visual inspection) is “Day 6”.
